Measured values published in PubChem BioAssay AID1324 (NMMLSC, 2008).
Active and inactive are the calls of the source. The rule behind the calls is not given here.

Target: glutathione S-transferase (GST-GSH binding)
Experiment: GST–glutathione interaction disruption – biochemical, multiplex beads, flow cytometry, HPSMTB buffer, profiling panel (AID 1324);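 note: glutathione beads loaded with GST-green fluorescent protein and no fluorescent Bim peptide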
Conditions: multiplex bead flow cytometry, MCF; for percent span inhibition: active compounds read high, concentration not given here

`Cc1ccc(-c2cc(C(=O)N3CCN(c4ncccn4)CC3)c3cc(Br)ccc3n2)o1` was tested, and the percent span inhibition was “inactive”.
In the case of `COc1ccccc1NC(=O)CSc1ncn(-c2ccccc2)n1`, the percent span inhibition is reported as “inactive”.
For `COc1cc2[nH]c(=S)nc(NCCCOC(C)C)c2cc1OC`, the percent span inhibition was “inactive”.
In the case of `Cc1ccc(Nc2nc(-c3ccccc3)c(CC(=O)O)s2)cc1`, the percent span inhibition is reported as “inactive”.
With `CN(CC(=O)O/N=C(\N)c1ccc([N+](=O)[O-])cc1)S(=O)(=O)c1ccccc1` the percent span inhibition was “inactive”.
With `COc1cccc2c(SCC(=O)N/N=C/c3ccc(O)c(O)c3)cc(C)nc12` the percent span inhibition was “inactive”.
`CC(NCc1ccc(-c2ccccc2)cc1)C(O)c1ccccc1` (centres undefined) was tested, and the percent span inhibition was “inactive”.
For `CS(=O)(=O)NN1C(=O)c2ccccc2NC1c1cccs1` (centres undefined), the percent span inhibition was “inactive”.
With `Cc1cc(C)c(C)c(S(=O)(=O)N2CCN(CC(=O)NC(=O)NCc3ccccc3)CC2)c1C` the percent span inhibition was “inactive”.
In the case of `CN(C)c1ccc(Nc2nc(-c3cccnc3)cs2)cc1`, the percent span inhibition is reported as “inactive”.
For `CC(C(=O)Nc1ccc([N+](=O)[O-])cc1)N1CCN(C/C=C/c2ccccc2)CC1` (centres undefined), the percent span inhibition was “inactive”.
In the case of `Cc1ccc(-c2n[nH]c(=S)n2-c2ccccc2)cc1`, the percent span inhibition is reported as “inactive”.
With `Cc1ccc(/C=C/C2=Cc3c(sc(NC(=O)CSc4n[nH]c(N)n4)c3C#N)C(C)(C)C2)o1` the percent span inhibition was “inactive”.
`Cc1cccc(-c2nnc3n2N=C(c2ccccc2)CS3)c1` was tested, and the percent span inhibition was “inactive”.
`O=C(Nc1ccccc1)c1ccc2nc(-c3ccco3)c(-c3ccco3)nc2c1` was tested, and the percent span inhibition was “inactive”.
For `O=C(Nc1ccccc1N1CCOCC1)c1cccs1`, the percent span inhibition was “inactive”.
With `CCC(=O)OCCNc1cc(Sc2nccn2C)c2nonc2c1[N+](=O)[O-]` the percent span inhibition was “inactive”.
For `CC(/C=C/C(=O)c1ccc(C)cc1)=C\c1ccccc1`, the percent span inhibition was “inactive”.
For `O=S1(=O)N=C(N(CCO)/N=C/c2ccncc2)c2ccccc21`, the EC50 was “inactive”.
In the case of `Fc1ccc(Cn2nnnc2C(c2ccc(Cl)cc2)N2CCSCC2)cc1` (centres undefined), the percent span inhibition is reported as “inactive”.
`O=C1NC(=S)S/C1=C/c1ccc(N2CCOCC2)o1` was tested, and the percent span inhibition was “inactive”.
`COc1cc(N=c2ssnc2Cl)c(OC)cc1Cl` was tested, and the percent span inhibition was “inactive”.
`COc1cc(/C=N/Nc2nc3c(c(=O)n(C)c(=O)n3C)n2Cc2ccccc2)ccc1OC(=O)c1ccco1` was tested, and the percent span inhibition was “inactive”.
`Cc1noc(C)c1CN1C(=O)NC(Cc2ccccc2)(Cc2ccccc2)C1=O` was tested, and the percent span inhibition was “inactive”.
`O=C(Nc1ccncc1)c1cc2ccccc2o1` was tested, and the percent span inhibition was “inactive”.
`CCc1ccc(NC(=O)CC2NCCNC2=O)cc1` (centres undefined) was tested, and the percent span inhibition was “inactive”.
`Cc1cnnn1-c1ccc(C(=O)CCl)cc1` was tested, and the percent span inhibition was “inactive”.
With `O=C(CSc1ccc(-c2ccccc2)nn1)NCc1ccco1` the percent span inhibition was “inactive”.
For `COc1ccccc1Nc1nc(-c2c(C)nc3ncccn23)cs1`, the EC50 was “inactive”.
`Cc1nc(=S)c2ccccc2[nH]1` was tested, and the percent span inhibition was “inactive”.
In the case of `Cc1ccc(-c2cc(-c3ccc(F)cc3)c(C#N)c(N)n2)o1`, the percent span inhibition is reported as “inactive”.
In the case of `Cc1cc(N2CCN(C)CC2)nc2ccc(NC(=S)N3CCN(c4cccc(Cl)c4)CC3)cc12`, the percent span inhibition is reported as “inactive”.
For `Cc1cc(C)c[n+](-c2nc3ccccc3nc2C(=C=[N-])C#N)c1`, the percent span inhibition was “inactive”.
`COc1ccc(NC(=O)c2cc(-c3ccc(C)o3)nc3ccccc23)cc1OC` was tested, and the percent span inhibition was “inactive”.
`CCOC(=O)C1CCCN(c2ncnc3c2cnn3-c2cccc(C)c2)C1` (centres undefined) was tested, and the percent span inhibition was “inactive”.
`CN1C(=O)/C(=C/c2ccc(-c3ccccc3[N+](=O)[O-])o2)SC1=Nc1ccc(Cl)c(C(=O)O)c1` was tested, and the percent span inhibition was “inactive”.
For `CCOCCCn1c(N)c(C(=O)Nc2sc3c(c2C(=O)OC)CCCC3)c2nc3ccccc3nc21`, the percent span inhibition was “inactive”.
With `CC(C)COC(=O)/C(C#N)=C/c1cn(Cc2ccccc2)c2ccccc12` the percent span inhibition was “inactive”.
In the case of `Cc1cc(N2CCN(C)CC2)nc2ccc(NC(=S)N3CCC4(CC3)OCCO4)cc12`, the percent span inhibition is reported as “inactive”.
Compound `O=c1c2c(-c3ccccc3)csc2nc2c3ccccc3c(NCCN3CCOCC3)nn12` has an EC50 of 210 nM.
In the case of `Cc1ccc(C(NC(=O)C(C)C)c2cc([N+](=O)[O-])c3cccnc3c2O)cc1` (centres undefined), the percent span inhibition is reported as “inactive”.
With `c1ccc(Nc2cccc(Nc3ccccc3)n2)cc1` the EC50 was “inactive”.
For `CN(/N=C/c1ccncc1)C1=NS(=O)(=O)c2ccccc21`, the EC50 was 3160 nM.
`Cc1cccn2c(=O)c3cc(C(N)=S)c(=N)n(CCCN4CCOCC4)c3nc12` was tested, and the percent span inhibition was “inactive”.
With `CCOc1cc(NC(=S)NC)c(OCC)cc1NC(=O)c1ccc(OC)cc1` the percent span inhibition was “inactive”.
`CCCn1c(SCC(=O)Nc2ccccc2-c2ccccc2)nnc1-c1ccoc1C` was tested, and the percent span inhibition was “inactive”.
For `COC(=O)c1sc(NC(=O)c2ccc(Cn3cc(Cl)cn3)o2)c(C#N)c1C`, the percent span inhibition was “inactive”.
`CCN(CC)c1ccc(NC(=O)c2cccc(C)c2)cc1S(=O)(=O)Nc1ccccc1OC` was tested, and the percent span inhibition was “inactive”.
In the case of `Cc1nc2ncccn2c1-c1csc(Nc2ccc(O)cc2)n1`, the EC50 is reported as 690 nM.
For `O=C(N/N=C/c1cccc([N+](=O)[O-])c1)c1cccs1`, the percent span inhibition was “inactive”.
In the case of `Cc1cc(C)c2nc3nc(C)cc(C)c3c(N)c2c1`, the percent span inhibition is reported as “inactive”.
In the case of `Cn1c(=O)c(C(=O)COC(=O)c2cc(-c3ccco3)nc3ccccc23)c(N)n(Cc2ccccc2)c1=O`, the percent span inhibition is reported as “inactive”.
In the case of `O=C(c1cc(=O)c2ccccc2o1)N1CCN(c2ccccc2F)CC1`, the percent span inhibition is reported as “inactive”.
`O=C1C=C(Nc2ccccc2)C(=O)c2ccccc21` was tested, and the percent span inhibition was “inactive”.
For `CC1(C)CC(NC(=O)COc2ccc([N+](=O)[O-])cc2)CC(C)(C)N1`, the percent span inhibition was “inactive”.
For `COc1ccccc1OCc1ccc(C(=O)Nc2ccccc2F)cc1`, the percent span inhibition was “inactive”.
In the case of `COc1ccc(S(=O)(=O)NCCSc2ccc(Cl)cc2)cc1OC`, the percent span inhibition is reported as “inactive”.
With `CCN(CC)c1ccc(Nc2nc(N3CCOCC3)c3ccccc3n2)cc1` the percent span inhibition was “inactive”.
In the case of `COc1ccc(CCNC(=O)c2cc(-c3ccccn3)nc3c(Cl)cccc23)cc1OC`, the percent span inhibition is reported as “inactive”.
With `COc1ccc(N2C(=O)C(Cl)=C(Nc3ccccc3O)C2=O)cc1` the percent span inhibition was “inactive”.
For `O=C(/C=C\c1ccc(-c2ccccc2)o1)c1ccccc1`, the percent span inhibition was “inactive”.
`Cc1ccccc1-n1nc(SCC(=O)O)sc1=S` was tested, and the percent span inhibition was “inactive”.
For `COc1ccc(NC(=O)C2=C(C)NC(=O)NC2c2cccc(OC)c2OC)c(OC)c1` (centres undefined), the percent span inhibition was “inactive”.
`C=CCSc1nc(N)c2c(C)c(C)sc2n1` was tested, and the percent span inhibition was “inactive”.
In the case of `O=C(/C=C/c1ccc(-c2ccccc2[N+](=O)[O-])o1)c1ccc(F)cc1`, the percent span inhibition is reported as “inactive”.
In the case of `Cc1ccc(-c2cc(-c3ccc(C)o3)nc(N)c2C#N)cc1`, the percent span inhibition is reported as “inactive”.
`O=C(Cn1cncc1-c1ccc([N+](=O)[O-])cc1)Nc1ccccc1F` was tested, and the percent span inhibition was “inactive”.
In the case of `Cc1ccc(C)c(/C=C/C(=O)c2ccccc(=O)c2O)c1`, the percent span inhibition is reported as “inactive”.
For `O=C(Cn1c(-c2ccccc2)noc1=O)N1CCC(Cc2ccccc2)CC1`, the percent span inhibition was “inactive”.
In the case of `CN(C)c1cccc(NC(=O)C2(C)CC2(Cl)Cl)c1` (centres undefined), the percent span inhibition is reported as “inactive”.
For `CSc1ccccc1NC(=O)CN(C)CC(=O)Nc1ccc(N2CCOCC2)cc1`, the percent span inhibition was “inactive”.
For `CNC(=O)/C(C#N)=C/c1c(N(Cc2ccccc2)Cc2ccccc2)nc2c(C)cccn2c1=O`, the percent span inhibition was “inactive”.
For `CCCc1nnc2n1N=C(c1ccc(-c3cc(Cl)ccc3Cl)o1)CS2`, the percent span inhibition was “inactive”.
With `O=S1(=O)N=C(N(CCO)/N=C/C=C/c2ccccc2)c2ccccc21` the percent span inhibition was “inactive”.
With `Cc1ccc2cc(C)c(Sc3nnnn3-c3ccccc3)nc2c1` the percent span inhibition was “inactive”.
In the case of `COc1ccc2oc(-c3ccccc3)c(C(=O)N3CCOCC3)c2c1`, the percent span inhibition is reported as “inactive”.
`Clc1ccc2c(N/N=C/c3cccc(Br)c3)ccnc2c1` was tested, and the percent span inhibition was “inactive”.
`O=C(OCC(=O)c1ccc[nH]1)c1ccccc1` was tested, and the percent span inhibition was “inactive”.
`CN(C)CCNC(=O)C(=O)C1C(=O)Nc2ccccc21` (centres undefined) was tested, and the percent span inhibition was “inactive”.
For `O=C(N/N=C/c1ccc(-c2ccccc2[N+](=O)[O-])o1)c1cncc(Br)c1`, the percent span inhibition was “inactive”.
`Cn1c(=O)c2c(nc(NCCO)n2CCc2ccccc2)n(C)c1=O` was tested, and the percent span inhibition was “inactive”.
`CCC(=O)OCCNc1cc(Sc2nc3ccccc3[nH]2)c2nonc2c1[N+](=O)[O-]` was tested, and the percent span inhibition was “inactive”.
`OCCC1CN(Cc2nc3c(s2)CCCC3)CCN1Cc1ccsc1` (centres undefined) was tested, and the percent span inhibition was “inactive”.
For `Cc1ccc(-c2ccc(CCC(=O)O)n2NC(=O)c2cccs2)cc1`, the percent span inhibition was “inactive”.
With `CCOc1ccccc1NC(=O)CSc1ccc2nnc(-c3cccnc3)n2n1` the percent span inhibition was “inactive”.
`COCCN=c1scc(-c2ccco2)n1/N=C/c1ccc(O)c(O)c1O` was tested, and the percent span inhibition was “inactive”.
For `CCC(=O)OCCNc1cc(Sc2nc3ccccc3s2)c2nonc2c1[N+](=O)[O-]`, the percent span inhibition was “inactive”.
In the case of `CNc1ccc(Br)cc(C(=O)/C=C/c2ccc(OC)cc2)c1=O`, the percent span inhibition is reported as “inactive”.
With `Cc1ccc(S(=O)(=O)N2CCCCC2)cc1NC(=O)COC(=O)c1ccccc1F` the percent span inhibition was “inactive”.
In the case of `NCC(c1ccccc1)c1c[nH]c2ccccc12` (centres undefined), the percent span inhibition is reported as “inactive”.
`CC(C)(C)NC(=O)COc1ccc(CNc2ccc3[nH]c(=O)[nH]c3c2)cc1` was tested, and the percent span inhibition was “inactive”.
With `COc1ccc(N2CC(C(=O)Nc3nnc(SCC(=O)c4ccccc4)s3)CC2=O)cc1` (centres undefined) the percent span inhibition was “inactive”.
With `CCOc1ccccc1-n1c(=O)c2ccccc2c2ccccc2c1=O` the percent span inhibition was “inactive”.
`COc1cc(CNc2ccc3[nH]c(=O)[nH]c3c2)cc(Br)c1OCC(=O)NC(C)(C)C` was tested, and the percent span inhibition was “inactive”.
With `O=c1nc2c(O)cccn2c2c1c(=O)[nH]c1ccccc12` the percent span inhibition was “inactive”.
In the case of `Cc1nnc2ccc(-c3cccc(NC(=O)c4ccco4)c3)nn12`, the percent span inhibition is reported as “inactive”.
`O=[N+]([O-])c1cccc(S(=O)(=O)NCC2CCCO2)c1` (centres undefined) was tested, and the percent span inhibition was “inactive”.
`O=C(c1ccccc1)c1ccc2nc(-c3ccco3)c(-c3ccco3)nc2c1` was tested, and the percent span inhibition was “inactive”.
In the case of `COc1cc2nc(=S)n(CCCN3CCOCC3)c(N)c2cc1OC`, the percent span inhibition is reported as “inactive”.
